Laboratory results from article PMC6268061, “Investigation of the Biological Properties of (Hetero)Aromatic Thiosemicarbazones” (Molecules, 2012).
Where two headings read alike, the source gives them in different places.

Experiments:
[1] = Lipophilicity determination using RP-HPLC (capacity factor, log k); type: physicochemical; details: C18, MeOH 55%/H2O 45%
Source text: Reversed phase high performance liquid chromatography (RP-HPLC) methods have become popular and are widely used for lipophilicity measurements. The general procedure is the measurement of the directly accessible retention time under isocratic conditions using varying amounts of methanol as an organic modifier in the mobile phase using RP columns and calculating the logarithm of the capacity factors (log k). Log k is the logarithm of the capacity factors in chromatographic approaches that is related to the partitioning of a compound between a mobile and a (pseudo-)stationary phase. Log k is used as the lipophilicity index converted to log P scale.
A Waters Alliance 2695 XE HPLC separation module and a Waters Photodiode Array Detector 2996 (Waters Corp., Milford, MA, USA) were used. A Symmetry® C18 5 μm, 4.6 × 250 mm, Part No. WAT054275 (Waters Corp.) chromatographic column was used. The HPLC separation process was monitored using Empower™ 2 Chromatography Data Software, Waters 2009 (Waters Corp.). A mixture of MeOH p.a. (55%) and H2O-HPLC-Mili-Q Grade (45%) was used as a mobile phase. The total flow of the column was 0.9 mL/min, injection volume 30 μL, column temperature 30 °C and sample temperature 10 °C. A detection wavelength of 210 nm was chosen. A KI methanolic solution was used for the determination of dead time (tD). Retention times (tR) were measured in minutes. The capacity factors k were calculated using the Empower™ 2 Chromatography Data Software according to the formula k = (tR − tD)/tD, where tR is the retention time of the solute, whereas tD denotes the dead time obtained using an unretained analyte. Log k, calculated from the capacity factor k, is used as the lipophilicity index converted to log P scale.

[2] = tested on: photosynthetic electron transport (PET) in spinach chloroplasts; test: Inhibition of photosynthetic electron transport (PET) in spinach chloroplasts; type: biochemical, Spinacia oleracea L.; details: DCPIP photoreduction
Method: Chloroplasts were prepared from spinach (Spinacia oleracea L.) according to Masarovicova and Kralova. The inhibition of the photosynthetic electron transport (PET) in spinach chloroplasts was determined spectrophotometrically (Genesys 6, Thermo Fisher Scientific, Waltham, MA, USA) using an artificial electron acceptor 2,6-dichlorophenol-indophenol (DCIPP) according to Kralova et al. and the rate of photosynthetic electron transport was monitored as a photoreduction of DCPIP. The measurements were carried out in a phosphate buffer (0.02 mol/L, pH 7.2) containing sucrose (0.4 mol/L), MgCl2 (0.005 mol/L) and NaCl (0.015 mol/L). The chlorophyll content was 30 mg/L in these experiments and the samples were irradiated (~100 W/m^2 with 10 cm distance) with a halogen lamp (250 W) using a 4 cm water filter to prevent warming of the samples (suspension temperature 22 °C). The compounds studied were dissolved in DMSO due to their limited water solubility. […] The inhibitory efficiency of the compounds studied was expressed by IC50 values, i.e., by the molar concentration of the compounds that caused a 50% decrease in the oxygen evolution rate relative to the untreated control.

[3] = tested on: Candida albicans ATCC 44859; test: In vitro antifungal susceptibility, broth microdilution; type: cell-based; details: ATCC44859, 24 h and 48 h, only one value presented (inactive), read-out: MIC (IC80) CA
Candida tropicalis 156 = test: as above; type: cell-based; details: Candida tropicalis, 156; 24 h and 48 h, only one value presented (inactive); read-out: MIC (IC80) CT
Candida krusei ATCC 6258 = test: as above; type: cell-based; details: Pichia kudriavzevii, ATCC6258; 24 h and 48 h, only one value presented (inactive); read-out: MIC (IC80) CK
Candida glabrata 20/I = test: as above; type: cell-based; details: Nakaseomyces glabratus, 24 h and 48 h, only one value presented (inactive), read-out: MIC (IC80) CG
[4] = tested on: Trichosporon beigelii 1188; test: as above; type: cell-based
Source text: The broth microdilution test was used for the assessment of the in vitro antifungal activity of the synthesized compounds against Candida albicans ATCC 44859 (CA), Candida tropicalis 156 (CT), Candida krusei ATCC 6258 (CK), Candida glabrata 20/I (CG), Trichosporon beigelii 1188 (TB), Aspergillus fumigatus 231 (AF), Absidia corymbifera 272 (AC), and Trichophyton mentagrophytes 445 (TM). Fluconazole (FLU) was used as the standard since it is a clinically used antimycotic drug. The procedure was performed using a twofold dilution of the compounds in RPMI 1640 (Sevapharma a.s., Prague, Czech Republic) buffered to pH 7.0 with […] of 3-morpholino-propane-1-sulfonic acid (MOPS, Sigma, Prague, Czech Republic). The final concentrations of the compounds ranged from 500 to 0.975 μmol/L. Drug-free controls were included. The determination of minimum inhibitory concentration (MIC) was performed according to the Clinical and Laboratory Standards Institute (CLSI, formerly NCCLS) reference protocol M27-A2 for yeasts (IC80 value) and M38-A for moulds (IC50 value). IC80 and IC50 were defined as an 80% resp. 50% or greater reduction in growth in comparison with the control. The values of MICs were determined after 24 and 48 h of static incubation at 35 °C. The final MICs for T. mentagrophytes, were determined after 72 and 120 h of incubation.

[5] = tested on: Aspergillus fumigatus 231; test: as above; type: cell-based; details: Aspergillus fumigatus, 231; 24 h and 48 h, only one value presented (inactive); read-out: MIC (IC50) AF
Absidia corymbifera 272 = test: as above; type: cell-based; details: Lichtheimia corymbifera, 272; 24 h and 48 h, only one value presented (inactive); read-out: MIC (IC50) AC
[6] = tested on: Trichophyton mentagrophytes 445; test: as above; type: cell-based; details: Trichophyton mentagrophytes, 445; 72 h and 120 h, only one value presented (inactive); read-out: MIC (IC50) TM
[7] = tested on: HCT-116 human colon cancer cells (p53 wild type); test: In vitro antiproliferative activity, MTS assay; type: cell-based; details: HCT-116, 72 h incubation, MTS, read-out: HCT-116 IC50
Method: The antiproliferative activity of all of the compounds was examined against the human colon cancer (HCT-116) cell line using an MTS assay. The HCT-116 p53 wild type cell line was chosen on the basis of our former experience and some results on the activity of quinoline-based thiosemicarbazones that was published recently. Namely, compounds 4a–l have been tested previously for their wide-ranging anticancer activity. The antiproliferative activity of the compounds evaluated was assessed using Doxorubicin as a reference compound. In general, quinoline-based thiosemicarbazones 4 seem to have a much better anticancer activity than halogenophenyl compounds 3. Thus, the quinoline nucleus can be defined as being crucial for antiproliferative activity. A more detailed analysis of the anticancer activity of quinoline-based thiosemicarbazone is available. […] Nevertheless, some more general conclusions can be drawn from the gathered data. […] The free amino group or substitution pattern with small substituents such as methyl or ethyl are favorable for activity. According to our former results the chelating ability of the compounds may be one of the prerequisites of the antiproliferative activity. In this study we have measured the UV-VIS spectra of the compounds in presence of various concentration of Fe^3+ cations to observe its chelating potency (supplementary material). […] However as 4j give also two points at 330 and 385 nm, iron chelating ability should be regarded only as one of the factor influencing the biological activity.
The human colon cancer cell line HCT116 with the wild type p53 gene (p53^+/+) were obtained from Maria Sklodowska-Curie Memorial Cancer Center in Gliwice, Poland. Briefly, the cells were seeded in 96-well plates (3 × 10^3 cells/well) in cellular proliferation assays 24 h before the addition of the chelators. The assay was performed following a 72 h incubation with varying concentrations of the agents. Each compound was tested in triplicate in a single experiment with each experiment being repeated 3 times. After 72 h incubation with the compounds being investigated, 20 µL of MTS solution was added to each well (100 µL) and incubated for 1 h at 37 °C. The optical densities of the samples were analyzed at 490 nm. Results were expressed as a percentage of the control. The inhibitory concentration (IC50) was defined as the compound concentration necessary to reduce the absorbance to 50% of the untreated control.

[8] = Trichosporon beigelii, 1188, 24 h and 48 h, only one value presented (inactive), read-out: MIC (IC80) TB

| SMILES | log k [1] | IC50 [2] [µM] | MIC [3] [µM] | MIC (Candida tropicalis 156) [µM] | MIC (Candida krusei ATCC 6258) [µM] | MIC (Candida glabrata 20/I) [µM] | MIC [4, 8] [µM] | IC50 [5] [µM] | IC50 (Absidia corymbifera 272) [µM] | IC50 [6] [µM] | IC50 [7] [µM] | MIC ([4]; Trichosporon beigelii, 1188, read-out: MIC (IC80) TB) [µM] |
| --- | --- | --- | --- | --- | --- | --- | --- | --- | --- | --- | --- | --- |
| CNC(=S)N/N=C/c1cccc(Cl)c1Cl [Compound 3b, (E)-2-(2,3-Dichlorobenzylidene)-N-methylhydrazinecarbothioamide] | 0.7357 | 170 | > 500 | > 500 | > 500 | > 500 | > 500 | > 500 | > 500 | > 500 | > 60 |  |
| CN(C)C(=S)N/N=C/c1cccc(Cl)c1Cl [Compound 3c, (E)-2-(2,3-Dichlorobenzylidene)-N,N-dimethylhydrazinecarbothioamide] | 0.7214 |  | > 125 | > 125 | > 125 | > 125 | > 125 | > 125 | > 125 | > 125 |  |  |
| S=C(N/N=C/c1cccc(Cl)c1Cl)Nc1ccccc1 [Compound 3e, (E)-2-(2,3-dichlorobenzylidene)-N-phenylhydrazinecarbothioamide] | 0.9230 | 499 | > 125 | > 125 | > 125 | > 125 | > 125 | > 125 | > 125 | > 125 | > 60 |  |
| CNC(=S)N/N=C/c1ccc(Br)cc1 [Compound 3l, (E)-2-(4-bromobenzylidene)-N-methylhydrazinecarbothioamide] | 0.6993 |  | > 500 | > 500 | > 500 | > 500 | > 500 | > 500 | > 500 | > 500 | > 60 |  |
| S=C(N/N=C/c1ccc(Br)cc1)Nc1ccccc1 [Compound 3o, (E)-2-(4-bromobenzylidene)-N-phenylhydrazinecarbothioamide] | 0.8772 |  | > 500 | > 500 | > 500 | > 500 | > 500 | > 500 | > 500 | > 500 | > 60 |  |
| CNC(=S)NN=Cc1ccc2ccccc2n1 [Compound 4a] | 0.6329 |  | > 500 | > 500 | > 500 | > 500 |  | > 500 | > 500 | > 500 | > 25 | > 500 |
